Measured values reported in paper PMC4166032 (Bioconjugate Chemistry, 2014).
Read-outs that look alike come from different tables or passages of the source.

Tests used:
[1] = test system: PXR; conditions: cited from earlier work; for IC50: read-out: reported IC50, BODIPY FL vinblastine (4) as fluorescent probe
[2] = molecular target: T1, GST-hPXR-LBD (Homo sapiens, UniProt O75469)
T1 sequence (O75469 146-433 limits assumed): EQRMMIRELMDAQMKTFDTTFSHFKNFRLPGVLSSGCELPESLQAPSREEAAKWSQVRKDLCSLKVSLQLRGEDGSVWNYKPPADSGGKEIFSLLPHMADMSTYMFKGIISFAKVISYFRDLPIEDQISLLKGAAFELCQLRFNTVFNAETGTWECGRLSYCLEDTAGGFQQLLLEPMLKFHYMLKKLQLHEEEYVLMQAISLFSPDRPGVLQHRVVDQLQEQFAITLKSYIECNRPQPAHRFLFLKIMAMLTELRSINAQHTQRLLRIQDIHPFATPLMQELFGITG

[3] = molecular target: T1, GST-hPXR-LBD; assay: biochemical
[4] = molecular target: T1, GST-hPXR-LBD; assay: biochemical; conditions: 30 min

In the case of `CC[C@]1(O)C[C@@H]2CN(CCc3c([nH]c4ccccc34)[C@@](C(=O)OC)(c3cc4c(cc3OC)N(C)[C@H]3[C@@](O)(C(=O)OC)[C@H](OC(C)=O)[C@]5(CC)C=CCN6CC[C@]43[C@@H]65)C2)C1` [vinblastine (10), vinblastine], the PXR-specific binding affinity [1] is given as “low PXR-specific binding affinity”.

For `Clc1ccccc1C(c1ccccc1)(c1ccccc1)n1ccnc1` [clotrimazole (6), clotrimazole], the IC50 [1] is listed as 1.94 µM.

With `CCC12C=CCN3CC[C@@]4(c5ccc(OC)cc5N(C)[C@H]4[C@@](O)(C(=O)OC)[C@@H]1OC(C)=O)[C@@H]32` (some centres unmarked) [vindoline (14), vindoline] the “inhibitory activity at 100 μM” value [2] was 93%, the IC50 [3] was 12.9 µM and the Ki [3] was 11.2 µM.

For `C[C@@H]1C(=O)O[C@H]2C[C@@]34[C@H]5C[C@@H](C(C)(C)C)[C@]36[C@@H](OC(=O)[C@@H]6O)O[C@@]4(C(=O)O5)[C@]21O` [ginkgolide A (8), ginkgolide A], the IC50 [1] is listed as 13.7 µM, the IC50 ([4]; IC50 with 50 nM 20, 50 nM BODIPY FL vindoline (20) probe) is listed as 20.7 µM and the IC50 ([4]; IC50 with 100 nM 20, 100 nM BODIPY FL vindoline (20) probe, laboratory assay buffer, 1.1% DMSO) is listed as 37.7 µM.
